In patent publication US11440909B2, “10H-phenothiazine ferroptosis inhibitor as well as the preparative method and the use thereof” (CHENGDU HENGHAO INVESTMENT CO. LIMITED, priority 2018, dated 2022):
Read-outs that look alike come from different tables or passages of the source. Blank lines part the entries; values can stand above or below the compound they belong to.

Legend:
[1] = test system: fibrosarcoma cell line HT1080; assay: Ferroptosis screening model (MTT method), Erastin-induced ferroptosis; assay type: cell-based, human
Summary of the method: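 HT1080 cells adhered 24 h, then received compound plus Erastin ([…] final) for 72 h at 37 °C, 5% CO2, in triplicate. Viability by MTT with SDS solubilisation, absorbance at 570 nm; inhibition of ferroptosis fitted to give EC50.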

[2] = test system: rat middle cerebral artery occlusion (MCAO) stroke model; assay: Rat middle cerebral artery occlusion (MCAO) stroke model, different doses; assay type: in vivo; settings: for Infarct weight: tail vein injection, 24 h of reperfusion, TTC stain; for Inhibition rate of cerebral infarction: versus model group infarct range
Procedure: By rat middle cerebral artery occlusion (MCAO) stroke model (also called cerebral ischemia model), the therapeutic effect of the compound of the present invention on ischemic stroke in SD rats at different doses was studied. Male SD rats were selected and induced anesthesia by 2-3.0% isoflurane. The middle cerebral artery was blocked by the thread plug method, resulting in rat ischemia model; the ischemic rats were placed at room temperature and kept their body temperature being 37° C. 60 minutes after ischemia onset, the rats were scored by Bederson neurobehavioral scale to determine whether the model was successfully made. 90 min after ischemia onset, the thread plug was pulled out for reperfusion. […] After 24 h of reperfusion, the animals were scored by NSS scale to evaluate neurological deficit. And then the animals were dissected, brains were collected and subjected to TTC stain. […] The percentage of the weight of the infarct tissue based on the weight of the whole brain was regarded as the infarct range (%), and the inhibition rate (%) of each drug treatment group was calculated based on the infarct range.

[3] = Homo sapiens, HT-1080, 72 h, HT1080, ferroptosis inducer Erastin, 72 h, average of three tests, read-out: EC50
[4] = HT1080, ferroptosis inducer Erastin, 72 h, average of three tests, read-out: EC50
[5] = positive drug butylphthalide 10 mg/kg

EC50 [1, 3]: 0.0005 µM | EC50 ([1]; Homo sapiens, HT-1080, HT1080, Erastin, read-out: EC50 value): ~0.001 µM
SMILES: CC(c1ccc(N2CCN(C)CC2)cc1)c1ccc2c(c1)Nc1ccccc1S2 (stereo not shown) [Compound A38, 2-(1-(4-(4-methylpiperazin-1-yl)phenyl)ethyl)-10H-phenothiazine]
Infarct weight ([2]; high dose 2.5 mg/kg): 0.126 ± 0.072 g | Inhibition rate of cerebral infarction ([2]; high dose 2.5 mg/kg): 50.885% | Infarct weight ([2]; low dose 0.5 mg/kg): 0.170 ± 0.041 g | Inhibition rate of cerebral infarction ([2]; low dose 0.5 mg/kg): 31.209% | Infarct weight ([2]; medium dose 1.25 mg/kg): 0.152 ± 0.064 g | Inhibition rate of cerebral infarction ([2]; medium dose 1.25 mg/kg): 38.968% | Infarct weight ([2]; very low dose 0.2 mg/kg): 0.187 ± 0.078 g | Inhibition rate of cerebral infarction ([2]; very low dose 0.2 mg/kg): 27.307%

EC50 [1, 4]: 0.228 µM
SMILES: COc1ccccc1N1CCN(S(=O)(=O)C(C)c2ccc3c(c2)Nc2ccccc2S3)CC1 (stereo not shown) [Compound C49, 2-(1-((4-(2-methoxylphenyl)piperazin-1-yl)sulfonyl)ethyl)-10H-phenothiazine]

EC50 [1, 4]: 0.143 µM
SMILES: C=C(c1cnc(N2CCOCC2)nc1)c1ccc2c(c1)Nc1ccccc1S2 [Compound C51, 4-(5-(1-(10H-phenothiazin-2-yl)ethenyl)pyrimidin-2-yl)morpholine]

EC50 [1, 3]: 0.069 µM
SMILES: CC(c1ccc2c(c1)Nc1ccccc1S2)S(=O)(=O)N1CCN(c2ncccn2)CC1 (stereo not shown) [Compound C52, 2-(1-((4-(pyrimidin-2-yl)piperazin-1-yl)sulfonyl)ethyl)-10H-phenothiazine]

EC50 [1, 3]: 0.182 µM
SMILES: CC(c1ccc2c(c1)Nc1ccccc1S2)S(=O)(=O)N1CCN(c2ccc(C#N)cc2)CC1 (stereo not shown) [Compound C53, 4-(4-((1-(10H-phenothiazin-2-yl)ethyl)sulfonyl)piperazin-1-yl)benzonitrile]

EC50 [1, 3]: 0.165 µM
SMILES: COc1cccc(N2CCN(S(=O)(=O)C(C)c3ccc4c(c3)Nc3ccccc3S4)CC2)c1 (stereo not shown) [Compound C54, 2-(1-((4-(3-methoxylphenyl)piperazin-1-yl)sulfonyl)ethyl)-10H-phenothiazine]

EC50 [1, 3]: 0.07 µM
SMILES: CC(c1ccc2c(c1)Nc1ccccc1S2)S(=O)(=O)N1CCN(c2ccc([N+](=O)[O-])cc2)CC1 (stereo not shown) [Compound C55, 2-(1-((4-(4-nitrophenyl)piperazin-1-yl)sulfonyl)ethyl)-10H-phenothiazine]

EC50 [1, 3]: 0.213 µM
SMILES: CC(c1ccc2c(c1)Nc1ccccc1S2)S(=O)(=O)N1CCN(c2ccc(C(F)(F)F)cc2)CC1 (stereo not shown) [Compound C56, 2-(1-((4-(4-(trifluoromethyl)phenyl)piperazin-1-yl)sulfonyl)ethyl)-10H-phenothiazine]

EC50 [1, 3]: 0.129 µM
SMILES: CC(c1ccc2c(c1)Nc1ccccc1S2)S(=O)(=O)N1CCN(c2cnccn2)CC1 (stereo not shown) [Compound C57, 2-(1-((4-(pyrazin-2-yl)piperazin-1-yl)sulfonyl)ethyl)-10H-phenothiazine]

EC50 [1, 3]: 0.178 µM
SMILES: CCCCN1CCN(S(=O)(=O)C(C)c2ccc3c(c2)Nc2ccccc2S3)CC1 (stereo not shown) [Compound C58, 2-(1-((4-butylpiperazin-1-yl)sulfonyl)ethyl)-10H-phenothiazine]

EC50 [1, 3]: 0.142 µM
SMILES: Cc1ccc(N2CCN(S(=O)(=O)C(C)c3ccc4c(c3)Nc3ccccc3S4)CC2)cc1 (stereo not shown) [Compound C59, 2-(1-((4-(p-methylphenyl)piperazin-1-yl)sulfonyl)ethyl)-10H-phenothiazine]

EC50 [1, 4]: 0.06 µM
SMILES: CCOC(=O)c1ccc(NC2CCCCC2)c(N)c1 [Fer-1, Ferrostatin-1, reference compound]

SMILES: CCCCC1OC(=O)c2ccccc21 (stereo not shown) [Positive drug, butylphthalide, reference compound]
NSS score ([2]; positive drug butylphthalide 10 mg/kg, after 24 h of reperfusion): 8.500 ± 1.401 | Infarct weight [2, 5]: 0.193 ± 0.075 g | Infarct range ([2]; positive drug butylphthalide 10 mg/kg, infarct tissue weight as % of whole brain weight): 13.292 ± 4.476 % | Inhibition rate of cerebral infarction [2, 5]: 24.477%
